Measured values taken from publication PMC10746543, “Design principles for cyclin K molecular glue degraders” (Nature Chemical Biology, 2023).
Values joined by “and” are separate entries in the source; they are usually repeats but may differ in a detail not shown here. Identical values can stand only once. Like-named read-outs stand apart in the source and are kept apart here.

Columns and labels:
[1] = molecular target: T1, CDK9–cyclin T (Homo sapiens, UniProt P50750); assay: Lanthascreen kinase binding assay, CDK9; conditions: for Lanthascreen TR-FRET signal (raw ratio), sheet CDK9: first titration set (r1), duplicates
T1 construct: purchased Thermo Fisher
Protocol: (§1) Lanthascreen experiments were performed using commercially available reagents (Thermo Fisher) and according to the manufacturer’s instructions.

[2] = tested on: HEK293T cells; assay: Drug sensitivity assay (CellTiter-Glo viability) with or without MLN4924 pretreatment; type: cell-based, human; conditions: Supplementary Table 2
In short: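 Viability of HEK293T–Cas9 cells was compared after 3-day drug treatment with or without 100 nM MLN4924 pretreatment (2 h, versus DMSO). Values are CellTiter-Glo signals relative to DMSO controls.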

[3] = molecular target: T2, CDK12–cyclin K and DDB1 (Homo sapiens, UniProt Q16531+Q9NYV4, K965R); assay: TR-FRET ternary complex formation assay (compound titration); type: binding; conditions: for EC50: read-out: TR-FRET EC50
T2 construct: His6–CDK12 (a.a. 713–1,052); full-length or beta-propeller B domain deletion (ΔBPB: a.a. 396–705 deleted) constructs of His6–DDB1ΔBPB, StrepII–Avi–DDB1, or His6–Spy–DDB1; made in house; host or cells: Trichoplusia ni High Five insect cells (baculovirus)
In short: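 Delayed (70 μs) time-resolved read; FRET computed as 520 nm over 490 nm emission.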

[4] = molecular target: T3, CDK2–cyclin A (Homo sapiens, UniProt P24941); assay: Lanthascreen kinase binding assay, CDK2; conditions: for Lanthascreen signal, sheet CDK2: raw replicates, experiment r1-r11
T3 construct: purchased Thermo Fisher
Protocol: as §1

[5] = tested on: cyclin K–eGFP degradation reporter; assay: Cyclin K reporter stability analysis (dual-color cyclin K–eGFP reporter); type: cell-based, human; conditions: source data sheet correlations; read-out: DC50
In short: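 Readout was the eGFP-to-mCherry geometric-mean ratio by flow cytometry, normalized to three DMSO controls, after 5 h drug exposure. Cells used were HEK293T–Cas9 expressing the dual-colour cyclin K–eGFP degradation reporter.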

[6] = molecular target: CDK12–cyclin K (Homo sapiens, UniProt Q9NYV4); assay: Lanthascreen kinase binding assay, CDK12; conditions: for Lanthascreen raw signal, sheet CDK12: series r1, duplicates
Protocol: as §1

CDK12–cyclin K, sequence (Q9NYV4 713-1052): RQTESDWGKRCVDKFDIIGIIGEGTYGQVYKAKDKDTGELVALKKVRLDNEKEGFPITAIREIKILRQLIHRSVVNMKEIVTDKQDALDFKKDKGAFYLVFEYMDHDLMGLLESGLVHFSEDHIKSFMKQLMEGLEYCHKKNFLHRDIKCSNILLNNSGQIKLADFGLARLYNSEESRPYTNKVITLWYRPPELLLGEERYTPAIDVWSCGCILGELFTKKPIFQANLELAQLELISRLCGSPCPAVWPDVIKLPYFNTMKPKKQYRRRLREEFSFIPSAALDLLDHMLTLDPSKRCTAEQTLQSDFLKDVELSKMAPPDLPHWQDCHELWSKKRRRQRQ
CDK12–cyclin K, sequence (O75909 1-267 partner limits assumed): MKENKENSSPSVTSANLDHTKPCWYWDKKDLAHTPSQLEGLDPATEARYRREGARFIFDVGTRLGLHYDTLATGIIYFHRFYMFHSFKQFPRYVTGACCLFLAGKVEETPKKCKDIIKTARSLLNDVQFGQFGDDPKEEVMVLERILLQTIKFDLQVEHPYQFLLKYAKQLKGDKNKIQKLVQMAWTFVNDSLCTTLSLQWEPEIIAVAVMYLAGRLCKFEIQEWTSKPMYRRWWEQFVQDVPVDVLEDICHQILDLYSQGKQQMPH
T1 sequence (P50750 whole entry): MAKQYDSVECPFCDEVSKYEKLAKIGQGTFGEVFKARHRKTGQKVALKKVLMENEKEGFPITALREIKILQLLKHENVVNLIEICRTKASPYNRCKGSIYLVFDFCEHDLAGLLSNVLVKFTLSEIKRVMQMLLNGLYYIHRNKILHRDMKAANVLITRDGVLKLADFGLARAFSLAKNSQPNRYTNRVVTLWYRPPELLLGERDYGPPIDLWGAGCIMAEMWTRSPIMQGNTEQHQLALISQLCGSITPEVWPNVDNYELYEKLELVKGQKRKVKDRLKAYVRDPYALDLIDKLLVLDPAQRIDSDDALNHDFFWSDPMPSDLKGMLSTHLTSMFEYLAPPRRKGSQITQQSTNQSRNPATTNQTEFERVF
T1 sequence (O60563 whole entry partner): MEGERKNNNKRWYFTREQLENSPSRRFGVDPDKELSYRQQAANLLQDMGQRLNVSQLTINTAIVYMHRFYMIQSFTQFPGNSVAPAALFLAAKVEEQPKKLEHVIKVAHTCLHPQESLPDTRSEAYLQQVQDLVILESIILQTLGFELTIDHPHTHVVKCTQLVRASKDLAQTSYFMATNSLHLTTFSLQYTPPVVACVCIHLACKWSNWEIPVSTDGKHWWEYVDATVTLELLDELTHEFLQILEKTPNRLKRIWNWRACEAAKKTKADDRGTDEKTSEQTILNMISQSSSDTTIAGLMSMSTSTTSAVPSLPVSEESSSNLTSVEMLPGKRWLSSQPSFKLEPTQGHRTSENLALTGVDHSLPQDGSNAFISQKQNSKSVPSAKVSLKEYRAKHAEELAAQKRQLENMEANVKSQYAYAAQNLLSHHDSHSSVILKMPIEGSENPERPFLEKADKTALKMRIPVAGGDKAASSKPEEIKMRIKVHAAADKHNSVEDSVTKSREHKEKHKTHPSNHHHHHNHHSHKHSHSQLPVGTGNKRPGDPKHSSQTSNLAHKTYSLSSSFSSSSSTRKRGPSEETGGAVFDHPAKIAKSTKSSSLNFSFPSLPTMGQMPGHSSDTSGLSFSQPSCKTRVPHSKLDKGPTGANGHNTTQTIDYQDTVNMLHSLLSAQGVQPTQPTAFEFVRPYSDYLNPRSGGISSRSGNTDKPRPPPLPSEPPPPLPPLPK
T2 sequence (Q9NYV4 713-1052 K965R): as the sequence (Q9NYV4 713-1052) above, with K253R counted along it
T2 sequence (O75909 1-267 partner): as the sequence (O75909 1-267 partner limits assumed) above
T2 sequence (Q16531 whole entry): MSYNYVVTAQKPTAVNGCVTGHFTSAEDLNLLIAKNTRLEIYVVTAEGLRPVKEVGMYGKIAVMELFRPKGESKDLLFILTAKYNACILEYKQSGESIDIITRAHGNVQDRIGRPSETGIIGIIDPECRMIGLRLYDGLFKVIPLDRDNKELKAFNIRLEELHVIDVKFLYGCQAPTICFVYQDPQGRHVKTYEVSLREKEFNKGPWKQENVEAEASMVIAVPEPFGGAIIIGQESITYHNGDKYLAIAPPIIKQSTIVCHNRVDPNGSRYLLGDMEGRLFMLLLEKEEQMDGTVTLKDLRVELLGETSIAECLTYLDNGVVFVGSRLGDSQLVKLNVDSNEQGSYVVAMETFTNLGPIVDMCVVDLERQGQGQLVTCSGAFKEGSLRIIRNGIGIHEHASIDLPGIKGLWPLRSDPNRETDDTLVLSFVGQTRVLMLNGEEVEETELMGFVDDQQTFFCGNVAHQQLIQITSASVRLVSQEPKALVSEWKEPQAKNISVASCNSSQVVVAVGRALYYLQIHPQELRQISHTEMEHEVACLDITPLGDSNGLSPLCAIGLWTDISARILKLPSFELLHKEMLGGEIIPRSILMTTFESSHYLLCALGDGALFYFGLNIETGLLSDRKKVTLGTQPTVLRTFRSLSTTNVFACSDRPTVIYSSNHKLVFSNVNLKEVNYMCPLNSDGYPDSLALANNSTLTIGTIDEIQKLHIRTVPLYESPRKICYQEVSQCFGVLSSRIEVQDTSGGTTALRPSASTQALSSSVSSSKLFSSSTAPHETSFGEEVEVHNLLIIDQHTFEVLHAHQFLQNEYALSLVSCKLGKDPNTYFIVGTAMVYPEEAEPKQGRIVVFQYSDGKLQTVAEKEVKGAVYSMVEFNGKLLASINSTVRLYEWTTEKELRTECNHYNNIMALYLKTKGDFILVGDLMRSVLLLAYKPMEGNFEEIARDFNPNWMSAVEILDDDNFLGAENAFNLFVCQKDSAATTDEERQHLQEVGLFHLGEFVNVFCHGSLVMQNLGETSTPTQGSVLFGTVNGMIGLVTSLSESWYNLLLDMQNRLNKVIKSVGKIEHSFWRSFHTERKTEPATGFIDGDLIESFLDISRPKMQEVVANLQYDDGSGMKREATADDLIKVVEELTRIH

## Fc1ccc2[nH]c(CNc3nc(N4CCOCC4)nc4c(Br)cnn34)nc2c1F [DS72]
[1]; Supplementary Table 2, read-out: Lanthascreen IC50 [nM] CDK9
  IC50: 104 nM
[1]; compound 1.02544 nM
  Lanthascreen TR-FRET signal (raw ratio), sheet CDK9: 0.0138 and 0.01522
[1]; compound 3.15521 nM
  Lanthascreen TR-FRET signal (raw ratio), sheet CDK9: 0.01223 and 0.01249
[1]; compound 9.46563 nM
  Lanthascreen TR-FRET signal (raw ratio), sheet CDK9: 0.0129 and 0.01178
[1]; compound 31.5521 nM
  Lanthascreen TR-FRET signal (raw ratio), sheet CDK9: 0.00952 and 0.01286
[1]; compound 99.3891 nM
  Lanthascreen TR-FRET signal (raw ratio), sheet CDK9: 0.008274 and 0.008068
[1]; compound 315.521 nM
  Lanthascreen TR-FRET signal (raw ratio), sheet CDK9: 0.006761 and 0.006072
[1]; compound 3155.21 nM
  Lanthascreen TR-FRET signal (raw ratio), sheet CDK9: 0.003594 and 0.002711
[1]; compound 10002 nM
  Lanthascreen TR-FRET signal (raw ratio), sheet CDK9: 0.003294 and 0.003353
[2]; Homo sapiens, HEK-293T, HEK293T viability, 72 h, compound alone, read-out: Cellular assays EC50
  EC50: 6 nM
[2]; MLN4924-mediated cytotoxicity rescue, 10 µM used where n.d.
  Toxicity rescue: 533%
[3]; compound concentration 0.468 nM, raw replicate titration data
  TR-FRET signal at compound concentration 0.468 nM: 0.3453 and 0.3314 and 0.2038 and 0.2054
[3]; compound concentration 2.16 nM, raw replicate titration data
  TR-FRET signal at compound concentration 2.16 nM: 0.4522 and 0.4261 and 0.3132 and 0.3307
[3]; compound concentration 3.6 nM, raw replicate titration data
  TR-FRET signal at compound concentration 3.6 nM: 0.6871 and 0.6344 and 0.5591 and 0.6106
[3]; compound concentration 7.92001 nM, raw replicate titration data
  TR-FRET signal at compound concentration 7.92001 nM: 1.2161 and 1.061 and 1.142 and 1.169
[3]; compound concentration 15.84 nM, raw replicate titration data
  TR-FRET signal at compound concentration 15.84 nM: 2.149 and 1.974 and 2.1219 and 2.262
[3]; compound concentration 30.96 nM, raw replicate titration data
  TR-FRET signal at compound concentration 30.96 nM: 3.31 and 3.181 and 2.938 and 2.942
[3]; compound concentration 62.6401 nM, raw replicate titration data
  TR-FRET signal at compound concentration 62.6401 nM: 3.363 and 3.323 and 3.061 and 3.125
[3]; compound concentration 125.28 nM, raw replicate titration data
  TR-FRET signal at compound concentration 125.28 nM: 3.473 and 3.376 and 3.04 and 3.123
[3]; compound concentration 244.8 nM, raw replicate titration data
  TR-FRET signal at compound concentration 244.8 nM: 3.475 and 3.275 and 3.121 and 3.153
[3]; compound concentration 993.601 nM, raw replicate titration data
  TR-FRET signal at compound concentration 993.601 nM: 3.459 and 3.133 and 3.073
[3]; compound concentration 2001.6 nM, raw replicate titration data
  TR-FRET signal at compound concentration 2001.6 nM: 3.344 and 3.271 and 3.14 and 3.1113
[3]; in vitro complex formation, 50 nM CDK12–cyclin K, 100 nM DDB1, text and figures
  EC50: 12 ± 1 nM
[3]; source data sheet correlations
  EC50: 12.2 nM
[4]; Compound 1.02544 nM
  Lanthascreen signal, sheet CDK2: 0.009384 and 0.009817
[4]; Compound 3.15521 nM
  Lanthascreen signal, sheet CDK2: 0.009333 and 0.009829
[4]; Compound 9.46563 nM
  Lanthascreen signal, sheet CDK2: 0.009654 and 0.01088
[4]; Compound 31.5521 nM
  Lanthascreen signal, sheet CDK2: 0.008522 and 0.009526
[4]; Compound 99.3891 nM
  Lanthascreen signal, sheet CDK2: 0.01016 and 0.009968
[4]; Compound 315.521 nM
  Lanthascreen signal, sheet CDK2: 0.008698 and 0.009504
[4]; Compound 3155.21 nM
  Lanthascreen signal, sheet CDK2: 0.005132 and 0.004872
[4]; Compound 10002 nM
  Lanthascreen signal, sheet CDK2: 0.003933 and 0.00458
[4]; Supplementary Table 2, read-out: Lanthascreen IC50 [nM] CDK2
  IC50: 1060 nM
[5]
  DC50: 6 nM
[6]; Supplementary Table 2, read-out: Lanthascreen IC50 [nM] CDK12
  IC50: 1 nM
[6]; compound 1.02544 nM
  Lanthascreen raw signal, sheet CDK12: 0.008081 and 0.009101
[6]; compound 3.15521 nM
  Lanthascreen raw signal, sheet CDK12: 0.008849 and 0.007319
[6]; compound 9.46563 nM
  Lanthascreen raw signal, sheet CDK12: 0.006356 and 0.00835
[6]; compound 31.5521 nM
  Lanthascreen raw signal, sheet CDK12: 0.005926 and 0.005481
[6]; compound 99.3891 nM
  Lanthascreen raw signal, sheet CDK12: 0.005678 and 0.004673
[6]; compound 315.521 nM
  Lanthascreen raw signal, sheet CDK12: 0.005163 and 0.006077
[6]; compound 3155.21 nM
  Lanthascreen raw signal, sheet CDK12: 0.003862 and 0.004893
[6]; compound 10002 nM
  Lanthascreen raw signal, sheet CDK12: 0.003963 and 0.004045
